Experiments:
LCK protein = LCK protein (Homo sapiens (Human), UniProt P06239); assay: LCK Inhibition Assay; type: biochemical
Procedure, shortened: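 Recombinant LCK (0.50 nM) preincubated 30 min at RT with compound and FLPeptide4 (2 μM) in 50 mM HEPES pH 7.5, 10 mM MgCl2, Brij-35, DTT, BSA; reaction started with ATP (400 μM solution added), run 90 min at 25 °C, EDTA-stopped. Phospho/non-phospho peptide separated by mobility shift; IC50 from % inhibition of conversion, 11-point 1:3 series.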

CSK protein = CSK protein (Homo sapiens (Human), UniProt P41240); assay: CSK Inhibition Assay; type: biochemical
Procedure, shortened: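 Compounds, 11-point 1:3 dilutions in DMSO, were preincubated 30 min at RT with CSK and fluorescent peptide substrate, then the reaction was started with ATP (4 μM solution) and run 90 min at 25 °C before EDTA stop. Phospho-peptide conversion was read by mobility-shift separation (Caliper EZ Reader II) and converted to % inhibition for IC50.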

Chain of LCK protein (P06239 whole entry): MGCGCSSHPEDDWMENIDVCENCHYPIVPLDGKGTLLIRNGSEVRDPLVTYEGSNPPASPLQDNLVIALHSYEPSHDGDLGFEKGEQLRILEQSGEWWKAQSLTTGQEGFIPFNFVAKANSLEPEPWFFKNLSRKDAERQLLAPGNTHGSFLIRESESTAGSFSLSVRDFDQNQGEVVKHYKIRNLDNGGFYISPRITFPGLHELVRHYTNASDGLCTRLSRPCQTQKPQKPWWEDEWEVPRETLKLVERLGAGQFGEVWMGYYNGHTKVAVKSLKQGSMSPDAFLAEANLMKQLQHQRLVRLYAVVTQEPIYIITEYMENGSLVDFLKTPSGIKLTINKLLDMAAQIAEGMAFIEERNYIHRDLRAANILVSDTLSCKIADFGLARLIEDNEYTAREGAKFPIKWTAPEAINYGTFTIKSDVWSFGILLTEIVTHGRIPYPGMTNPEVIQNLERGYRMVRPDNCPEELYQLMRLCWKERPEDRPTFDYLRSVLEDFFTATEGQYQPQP

IC50 (LCK protein) [nM] | IC50 (CSK protein) [nM] | Structure (SMILES)
> 1000 | 2.7 | Cc1ccc(Cl)c(S(=O)(=O)Nc2cccc(-c3nc(-c4cncc(F)c4)sc3-c3ccnc(NC4CC4)n3)c2F)c1Cl [Compound 139]
> 1000 | 16.5 | CNc1nccc(-c2sc(-c3cncc(F)c3)nc2-c2cc(Cl)cc(NS(=O)(=O)c3c(F)cccc3F)c2F)n1 [Compound 140]
100 to 1000 | 6.8 | Cc1ncc(-c2nc(-c3cccc(NS(=O)(=O)c4c(Cl)cccc4Cl)c3F)c(-c3ccnc(N)n3)s2)cn1 [Compound 141]
> 1000 | 10.5 | Cc1ncc(-c2nc(-c3cccc(NS(=O)(=O)c4c(Cl)ccc(C)c4Cl)c3F)c(-c3ccnc(N)n3)s2)cn1 [Compound 142]
> 1000 | 3.6 | CNc1nccc(-c2sc(-c3cnc(C)nc3)nc2-c2cccc(NS(=O)(=O)c3c(Cl)ccc(C)c3Cl)c2F)n1 [Compound 143]
> 1000 | 23.9 | CNc1nccc(-c2sc(-c3cnc(C)cn3)nc2-c2cccc(NS(=O)(=O)c3c(F)ccc(C)c3F)c2F)n1 [Compound 144]
> 1000 | 113 | CNc1nccc(-c2c(-c3cccc(NS(=O)(=O)c4c(Cl)cccc4Cl)c3F)nc3cc(OC)ccn23)n1 [Compound 145]
> 1000 | 41.3 | CNc1nccc(-c2c(-c3cccc(NS(=O)(=O)c4c(Cl)ccc(C)c4Cl)c3F)nc3cc(OC)ccn23)n1 [Compound 146]
> 1000 | 30.3 | COc1ccn2c(-c3ccnc(NCCO)n3)c(-c3cccc(NS(=O)(=O)c4c(Cl)ccc(C)c4Cl)c3F)nc2c1 [Compound 147]
100 to 1000 | 6.9 | CNc1nccc(-c2sc(-c3cnc(C)nc3)nc2-c2cccc(NS(=O)(=O)c3c(Cl)cccc3Cl)c2F)n1 [Compound 148]
> 1000 | 4.5 | Cc1ncc(-c2nc(-c3cccc(NS(=O)(=O)c4c(Cl)cccc4Cl)c3F)c(-c3ccnc(NC4CC4)n3)s2)cn1 [Compound 149]
> 1000 | 8.1 | Cc1ncc(-c2nc(-c3cccc(NS(=O)(=O)c4c(Cl)cccc4Cl)c3F)c(-c3ccnc(NCCO)n3)s2)cn1 [Compound 150]
> 1000 | 4.8 | Cc1ncc(-c2nc(-c3cccc(NS(=O)(=O)c4c(Cl)ccc(C)c4Cl)c3F)c(-c3ccnc(NC4CC4)n3)s2)cn1 [Compound 151]
> 1000 | 6 | Cc1ncc(-c2nc(-c3cccc(NS(=O)(=O)c4c(Cl)ccc(C)c4Cl)c3F)c(-c3ccnc(NCCO)n3)s2)cn1 [Compound 152]
> 1000 | 16.6 | Cc1ncc(-c2nc(-c3cccc(NS(=O)(=O)c4c(F)ccc(C)c4F)c3F)c(-c3ccnc(NCCO)n3)s2)cn1 [Compound 155]
> 1000 | 9.3 | Cc1ncc(-c2nc(-c3cccc(NS(=O)(=O)c4c(F)ccc(C)c4F)c3F)c(-c3ccnc(NC4CC4)n3)s2)cn1 [Compound 156]
> 1000 | 25.8 | CNc1nccc(-c2sc(N(C)C)nc2-c2cccc(NS(=O)(=O)c3c(F)cccc3F)c2F)n1 [Compound 157]
> 1000 | 170 | COc1ccn2c(-c3ccnc(NC4CC4)n3)c(-c3cccc(NS(=O)(=O)c4c(Cl)cccc4Cl)c3F)nc2c1 [Compound 158]
> 1000 | 28.4 | COc1ccn2c(-c3ccnc(NCCO)n3)c(-c3cccc(NS(=O)(=O)c4c(Cl)cccc4Cl)c3F)nc2c1 [Compound 159]
> 1000 | 112 | COc1ccn2c(-c3ccnc(NC4CC4)n3)c(-c3cccc(NS(=O)(=O)c4c(Cl)ccc(C)c4Cl)c3F)nc2c1 [Compound 160]
> 1000 | 10.1 | CNc1nccc(-c2sc(N3CCCCC3)nc2-c2cccc(NS(=O)(=O)c3c(F)ccc(C)c3F)c2F)n1 [Compound 161]
100 to 1000 | 6.4 | CNc1nccc(-c2sc(N3CCC(F)(F)C3)nc2-c2cccc(NS(=O)(=O)c3c(F)cccc3F)c2F)n1 [Compound 162]
100 to 1000 | 7.4 | O=S(=O)(Nc1cccc(-c2nc(N3CCCCC3)sc2-c2ccnc(NC3CC3)n2)c1F)c1c(F)cccc1F [Compound 163]
100 to 1000 | 25.4 | CNc1nccc(-c2sc(N3CCC(F)(F)CC3)nc2-c2cccc(NS(=O)(=O)c3c(F)cccc3F)c2F)n1 [Compound 164]
100 to 1000 | 9.9 | CNc1nccc(-c2sc(NCC(F)(F)F)nc2-c2cccc(NS(=O)(=O)c3c(F)cccc3F)c2F)n1 [Compound 165]
100 to 1000 | 13.5 | CNc1nccc(-c2sc(N3CCCCC3)nc2-c2cccc(NS(=O)(=O)c3c(Cl)cccc3Cl)c2F)n1 [Compound 166]
> 1000 | 15.9 | Cc1ccc(F)c(S(=O)(=O)Nc2cccc(-c3nc(-c4cncc(F)c4)sc3-c3ccnc(NCCO)n3)c2F)c1F [Compound 167]

IC50 (LCK protein) [nM] | IC50 (CSK protein) [nM] | Structure (SMILES)
100 to 1000 | 12.7 | CNc1nccc(-c2sc(N3CC(F)(F)C3)nc2-c2cccc(NS(=O)(=O)c3c(F)cccc3F)c2F)n1 [Compound 168]
> 1000 | 9.1 | Cc1ccc(F)c(S(=O)(=O)Nc2cccc(-c3nc(-c4cncc(F)c4)sc3-c3ccnc(NC4CC4)n3)c2F)c1F [Compound 169]
> 1000 | 5.6 | O=S(=O)(Nc1cccc(-c2nc(-c3cncc(F)c3)sc2-c2ccnc(NC3CC3)n2)c1F)c1c(F)ccc(Cl)c1F [Compound 171]
> 1000 | 5.4 | O=S(=O)(Nc1cccc(-c2nc(-c3cncc(F)c3)sc2-c2ccnc(NCCO)n2)c1F)c1c(F)ccc(Cl)c1F [Compound 172]
> 1000 | 10.3 | Cc1ccc(-c2nc(-c3cccc(NS(=O)(=O)c4c(F)ccc(C)c4F)c3F)c(-c3ccnc(NC4CC4)n3)s2)nn1 [Compound 173]
> 1000 | 17.5 | Cc1ccc(-c2nc(-c3cccc(NS(=O)(=O)c4c(F)ccc(C)c4F)c3F)c(-c3ccnc(NCCO)n3)s2)nn1 [Compound 174]
> 1000 | 6.5 | Cc1ccc(-c2nc(-c3cccc(NS(=O)(=O)c4c(Cl)ccc(C)c4Cl)c3F)c(-c3ccnc(NC4CC4)n3)s2)nn1 [Compound 175]
> 1000 | 10.2 | Cc1ccc(F)c(S(=O)(=O)Nc2cccc(-c3nc(N4CCCCC4)sc3-c3ccnc(NC4CC4)n3)c2F)c1F [Compound 176]
> 1000 | 14.1 | CNc1nccc(-c2sc(N3CCCCC3)nc2-c2cccc(NS(=O)(=O)c3c(Cl)ccc(C)c3Cl)c2F)n1 [Compound 177]
> 1000 | 7.5 | Cc1ccc(Cl)c(S(=O)(=O)Nc2cccc(-c3nc(N4CCCCC4)sc3-c3ccnc(NCCO)n3)c2F)c1Cl [Compound 178]
> 1000 | 6.2 | Cc1ccc(Cl)c(S(=O)(=O)Nc2cccc(-c3nc(N4CCCCC4)sc3-c3ccnc(NC4CC4)n3)c2F)c1Cl [Compound 179]
> 1000 | 13 | CNc1nccc(-c2sc(N(C)C)nc2-c2cccc(NS(=O)(=O)c3c(F)ccc(C)c3F)c2F)n1 [Compound 180]
100 to 1000 | 7.8 | CNc1nccc(-c2sc(N(C)CC(F)(F)F)nc2-c2cccc(NS(=O)(=O)c3c(F)cccc3F)c2F)n1 [Compound 181]
> 1000 | 8.3 | CNc1nccc(-c2sc(N(C)C)nc2-c2cccc(NS(=O)(=O)c3c(Cl)ccc(C)c3Cl)c2F)n1 [Compound 182]
> 1000 | 11.2 | Cc1ccc(F)c(S(=O)(=O)Nc2cccc(-c3nc(N(C)C)sc3-c3ccnc(NC4CC4)n3)c2F)c1F [Compound 183]
> 1000 | 5.2 | O=S(=O)(Nc1cccc(-c2nc(N3CCCC3)sc2-c2ccnc(NC3CC3)n2)c1F)c1c(F)ccc(Cl)c1F [Compound 184]
> 1000 | 4.9 | O=S(=O)(Nc1cccc(-c2nc(N3CCCCC3)sc2-c2ccnc(NC3CC3)n2)c1F)c1c(F)ccc(Cl)c1F [Compound 185]
> 1000 | 4.1 | O=S(=O)(Nc1cccc(-c2nc(N3CCC3)sc2-c2ccnc(NC3CC3)n2)c1F)c1c(F)ccc(Cl)c1F [Compound 186]
> 1000 | 7.3 | CN(C)c1nc(-c2cccc(NS(=O)(=O)c3c(F)ccc(Cl)c3F)c2F)c(-c2ccnc(NC3CC3)n2)s1 [Compound 187]
> 1000 | 11.4 | CC(C)(C)c1nc(-c2cccc(NS(=O)(=O)c3c(F)ccc(Cl)c3F)c2F)c(-c2ccnc(NC3CC3)n2)s1 [Compound 188]
> 1000 | 18.5 | CNc1nccc(-c2sc(N3CCC(F)(F)CC3)nc2-c2cccc(NS(=O)(=O)c3c(F)ccc(C)c3F)c2F)n1 [Compound 189]
> 1000 | 43.3 | Nc1nccc(-c2sc(-c3ccccc3)nc2-c2cccc(NS(=O)(=O)c3c(F)cccc3F)c2F)n1 [compound 2]
< 100 | 13.4 | O=S(=O)(Nc1cccc(-c2nc(-c3ccccc3)sc2-c2ccnc(Nc3ccc(N4CCOCC4)nc3)n2)c1F)c1c(F)cccc1F [compound 3]
100 to 1000 | 19.8 | Nc1ncc(-c2nc(-c3cccc(NS(=O)(=O)c4c(F)cccc4F)c3F)c(-c3ccnc(N)n3)s2)cn1 [compound 6]
> 1000 | 306 | CCOc1ncc(-c2nc(-c3cccc(NS(=O)(=O)c4c(F)cccc4F)c3F)c(-c3ccnc(N)n3)s2)cn1 [compound 7]
> 1000 | 237 | Nc1nccc(-c2sc(-c3ccccc3)nc2-c2cncc(NS(=O)(=O)c3c(F)cccc3F)c2)n1 [compound 25]
100 to 1000 | 26.9 | COc1ccc(-c2nc(-c3cccc(NS(=O)(=O)c4c(F)cccc4F)c3F)c(-c3ccnc(N)n3)s2)cn1 [compound 27]
